How the values were obtained:
[1] = tested on: sAPPβ in H4 human neuroglioma cells over-expressing the wild-type human APP695; assay: sAPPβ Whole-Cell Assay (WCA); type: cell-based; settings: 18 h
Method: sAPPβ Whole-Cell Assay (WCA): sAPPβ, the primary cleavage product of BACE1, was determined in H4 human neuroglioma cells over-expressing the wild-type human APP695. […] The colorimetric reaction was read by an EnVision (PerkinElmer) plate-reader.

[2] = target: human BACE2 (Homo sapiens (Human), UniProt Q9Y5Z0); assay: BACE2 binding assay (SPA), BACE2/BACE1 Binding Ratio; settings: ratio of IC50 from respective binding assays, pH 6.0
human BACE2, sequence (Q9Y5Z0 63-518): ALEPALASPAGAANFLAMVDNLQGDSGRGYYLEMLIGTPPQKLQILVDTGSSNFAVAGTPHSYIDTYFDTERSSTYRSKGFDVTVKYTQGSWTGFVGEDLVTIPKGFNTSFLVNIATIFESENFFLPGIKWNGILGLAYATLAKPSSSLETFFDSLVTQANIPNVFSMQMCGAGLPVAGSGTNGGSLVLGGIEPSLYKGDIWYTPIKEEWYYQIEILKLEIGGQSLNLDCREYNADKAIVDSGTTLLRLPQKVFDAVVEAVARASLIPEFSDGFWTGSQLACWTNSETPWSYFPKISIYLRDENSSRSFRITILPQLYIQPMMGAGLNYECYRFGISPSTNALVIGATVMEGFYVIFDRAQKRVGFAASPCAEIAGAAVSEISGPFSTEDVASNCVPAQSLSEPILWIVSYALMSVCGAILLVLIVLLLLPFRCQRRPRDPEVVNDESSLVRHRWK
Method: BACE2/BACE1 Binding Ratio: The BACE1 and BACE2 binding assays measured beta-site amyloid precursor protein-cleaving enzyme (BACE) binding as a decrease in the counts of radioligand bound in a scintillation proximity assay (SPA). […] Full length human BACE1 or BACE2 over-expressed in HEK cells was prepared by Pfizer scientists. Frozen stock cell paste was reacted in 50 mM sodium acetate buffer (pH=6.0) containing 3H-(4aR,6R,8aS)-8a-(2,4-difluorophenyl)-6-(1-methyl-1H-pyrazol-4-yl)-4,4a,5,6,8,8a-hexahydropyrano[3,4-d][1,3]thiazin-2-amine ligand, SPA bead and 60 μM to 600 pM of test compound in an assay volume of 27 uL. The compound plate also contained positive (BACE inhibitor) and negative (DMSO) control wells. The binding was carried out at room temperature for 30 minutes and then the plates were read on a TriLux Microbeta reader to determine the number of counts bound.

[3] = GSH Incubation Assay; type: in vitro ADME; settings: following incubations with glutathione
Method: GSH Incubation Assay: The test compound (10 μM in DMSO) was incubated with L-glutathione (50 mM, prepared in 100 mM postassium phosphate buffer) at 37° C. for 4 hours and then analyzed by HPLC-UV/MS/MS without work-up. Thermo Accela HPLC and Velos Pro Orbitrap Elite (S/N: SN05189B) operating in positive mode with a source voltage of 3.5 kV with data dependant processing. […] Product assignments were based on high resolution mass spectrometer fragmentation.

Row | Structure (SMILES) | IC50 [1] [nM] | BACE2/BACE1 Binding Ratio [2] | formation of GSH adducts [3]
1 | NC1=N[C@@]2(c3cc(NC(=O)c4ccc(OC(F)F)cn4)ccc3F)CO[C@@H](C(F)(F)F)C[C@H]2CS1 [Comparator 6] | < 1 | 1.0 | 
2 | C[C@H]1C[C@H]2CSC(N)=N[C@@]2(c2cc(NC(=O)c3ccc(Cl)cn3)ccc2F)CO1 [Comparator 7] | < 1 | 1.0 | 
3 | C[C@H]1C[C@H]2CSC(N)=N[C@@]2(c2nc(NC(=O)c3ccc(OC(F)F)cn3)cs2)CO1 [Example 1, N-{2-[(4aR,6S,8aR)-2-amino-6-methyl-4,4a,5,6-tetrahydropyrano[3,4-d][1,3]thiazin-8a(8H)-yl]-1,3-thiazol-4-yl}-5-(difluoromethoxy)pyridine-2-carboxamide] |  |  | not detected
4 | C[C@H]1C[C@H]2CSC(N)=N[C@@]2(c2nc(NC(=O)c3cnc(OC(F)F)cn3)cs2)CO1 [Example 2, N-{2-[(4aR,6S,8aR)-2-amino-6-methyl-4,4a,5,6-tetrahydropyrano[3,4-d][1,3]thiazin-8a(8H)-yl]-1,3-thiazol-4-yl}-5-(difluoromethoxy)pyrazine-2-carboxamide] |  |  | not detected

Results, then the compound that gave them:

Row | IC50 [1] [nM] | BACE2/BACE1 Binding Ratio [2] | formation of GSH adducts [3] | Structure (SMILES)
5 |  |  | not detected | C[C@H]1C[C@H]2CSC(N)=N[C@@]2(c2nc(NC(=O)c3ccc(Cl)cn3)cs2)CO1 [Example 7, N-{2-[(4aR,6S,8aR)-2-amino-6-methyl-4,4a,5,6-tetrahydropyrano[3,4-d][1,3]thiazin-8a(8H)-yl]-1,3-thiazol-4-yl}-5-chloropyridine-2-carboxamide]
6 |  |  | not detected | Cc1cc(OC(F)F)cnc1C(=O)Nc1csc([C@]23CO[C@@H](C)C[C@H]2CSC(N)=N3)n1 [Example 45, N-{2-[(4aR,6S,8aR)-2-amino-6-methyl-4,4a,5,6-tetrahydropyrano[3,4-d][1,3]thiazin-8a(8H)-yl]-1,3-thiazol-4-yl}-5-(difluoromethoxy)-3-methylpyridine-2-carboxamide]

Source: patent US9744173B2, “2-amino 6-methyl-4,4a,5,6-tetrahydropyrano[3,4-d][1,3]thiazin-8a(8H)-yl-1,3-thiazol-4-yl amides” (Pfizer Inc., priority 2014, dated 2017)
